Assay results reported in article PMC8838534, “Unprecedented Epimerization of an Azithromycin Analogue: Synthesis, Structure and Biological Activity of 2′-Dehydroxy-5″-Epi-Azithromycin” (Molecules, 2022).
Values after ≈ are worked out from the molar mass of the structure shown. Values joined by “and” are separate entries in the source; they are usually repeats but may differ in a detail not shown here. Identical values can stand only once.

Experiments:
[1] = test system: neutrophil accumulation in BALF of cigarette-smoke-challenged mice; assay: Cigarette-smoke-induced pulmonary inflammation; format: in vivo, mouse; settings: oral dosing 2 h prior smoke challenge on each smoke day
[2] = test system: Haemophilus influenzae (ATCC49247); assay: Antimicrobial activity, CLSI broth microdilution MIC; format: cell-based; settings: read-out: MIC H. influenzae
Text: (§1) The Clinical and Laboratory Standards (CLSI) recommended procedure (Document M7-[…], Methods for Dilution Susceptibility Tests for Bacteria that Grow Aerobically) by broth microdilution was used to determine the antimicrobial activity of compounds against Escherichia coli (ATCC25922), Staphylococcus aureus (ATCC13709), Streptococcus pneumoniae (ATCC49619), Streptococcus pyogenes (ATCC700294), Moraxella catarrhalis (ATCC23246) and Haemophilus influenzae (ATCC49247). The minimum inhibitory concentration (MIC) is determined as the lowest concentration of compound that inhibited visible growth.

[3] = test system: Escherichia coli (ATCC25922); assay: as above; format: cell-based
Text: as §1

[4] = test system: Staphylococcus aureus (ATCC13709); assay: as above; format: cell-based; settings: read-out: MIC S. aureus
Text: as §1

[5] = test system: Streptococcus pneumoniae (ATCC49619); assay: as above; format: cell-based; settings: read-out: MIC S. penumoniae
Text: as §1

[6] = test system: Streptococcus pyogenes (ATCC700294); assay: as above; format: cell-based; settings: read-out: MIC S. pyogenes
Text: as §1

[7] = test system: Moraxella catarrhalis (ATCC23246); assay: as above; format: cell-based
Text: as §1

[8] = test system: neutrophil accumulation in BALF of LPS-challenged BALB/cJ mice; assay: LPS-induced pulmonary neutrophilia; format: in vivo, mouse (BALB/cJ); settings: 200 mg/kg intraperitoneally 2 h prior LPS, BALF 24 h after LPS
Procedure: Vehicle, azithromycin, and compound 4 were administered intraperitoneally at a dose of 200 mg/kg (b.w.) to 10-week-old male BALB/cJ mice (Charles River, Lyon, France) 2 h before intranasal challenge with 2 μg of LPS from E. coli. Then, 24 h after LPS application animals were euthanized and bronchoalveolar lavage was performed. Total number of cells in BALF was counted with a hematological analyzer (Sysmex SF 3000, Sysmex Corp., Kobe, Japan). Percentages of neutrophils were determined by morphological examination of at least 200 cells on smears prepared by cytocentrifugation (Cytospin-3, Thermo Fisher Scientific Inc, Waltham, MA, USA) and stained with Kwik-Diff staining set (Thermo Fisher Scientific Inc., USA).
All values are presented as means ± S.E.M. To define statistically significant differences in cell numbers among vehicle-treated and macrolide-treated mice the data were subjected to one-way ANOVA followed by Dunnett’s Multiple Comparison Test using GraphPad Prism version 5.00 for Windows (GraphPad Software, San Diego, CA, USA). The level of significance was set at p < 0.05 in all cases.

Pharmacokinetics in rat = format: in vivo, Sprague Dawley rats
Procedure: (§2) Pharmacokinetic profiles were determined in male Balb/c mice and CD Sprague-Dawley rats (Charles River Laboratories, Germany), following single oral (p.o.) and single intravenous (i.v.) bolus administration. The compound was administered at a dose of […] i.v. and 10 mg/kg p.o. Blood was obtained by serial blood sampling from the tail vein over a range of time points up to 30 h postdose. Samples were extracted by protein precipitation and subjected to quantitative analysis by LC-MS/MS using compound-specific mass transitions. Drug concentration−time profiles were generated and noncompartmental PK analysis used to generate estimates of half-life, clearance, volume of distribution, and oral bioavailability.

[9] = Pharmacokinetics in mouse; format: in vivo, Balb/c mice
Procedure: as §2

recombinant human CYP2D6 = target: T1, recombinant human CYP2D6 (Homo sapiens, UniProt P10635); assay: In vitro cytochrome inhibition; format: in vitro ADME; settings: recombinant human CYP, fluorescent probe; read-out: IC50 inhibition of cytochrome 2D6
T1 construct: purchased Cypex
Procedure: (§3) Test compounds were incubated using a concentration range from 0.1 to 100 µM with recombinant human CYP1A2, 2C9, 2C19, 2D6 and 3A4 (Cypex). The compounds were preincubated at 37 °C for 5 or 10 min with the CYP enzyme isoforms, in the presence of 50 mM phosphate buffer (pH 7.4) and fluorescent probes. The incubations were started by addition of a cofactor solution containing NADP, glucose 6-phosphate and glucose 6-phosphate dehydrogenase. The plates were incubated for 10 min at 37 °C reading the fluorescence signal on a plate reader throughout. The fluorescence data were then used to calculate the IC50 values for each compound.

[10] = target: T2, recombinant human CYP2C19 (Homo sapiens, UniProt P33261); assay: In vitro cytochrome inhibition; format: in vitro ADME; settings: recombinant human CYP, fluorescent probe; read-out: IC50 inhibition of cytochrome 2C19
T2 construct: purchased Cypex
Procedure: as §3

recombinant human CYP3A4 = target: T3, recombinant human CYP3A4 (Homo sapiens, UniProt P08684); assay: In vitro cytochrome inhibition; format: in vitro ADME; settings: recombinant human CYP, fluorescent probe; read-out: IC50 inhibition of cytochrome 3A4
T3 construct: purchased Cypex
Procedure: as §3

recombinant human CYP1A2 = target: T4, recombinant human CYP1A2 (Homo sapiens, UniProt P05177); assay: In vitro cytochrome inhibition; format: in vitro ADME; settings: recombinant human CYP, fluorescent probe; read-out: IC50 inhibition of cytochrome 1A2
T4 construct: purchased Cypex
T4 sequence (P05177 1-516): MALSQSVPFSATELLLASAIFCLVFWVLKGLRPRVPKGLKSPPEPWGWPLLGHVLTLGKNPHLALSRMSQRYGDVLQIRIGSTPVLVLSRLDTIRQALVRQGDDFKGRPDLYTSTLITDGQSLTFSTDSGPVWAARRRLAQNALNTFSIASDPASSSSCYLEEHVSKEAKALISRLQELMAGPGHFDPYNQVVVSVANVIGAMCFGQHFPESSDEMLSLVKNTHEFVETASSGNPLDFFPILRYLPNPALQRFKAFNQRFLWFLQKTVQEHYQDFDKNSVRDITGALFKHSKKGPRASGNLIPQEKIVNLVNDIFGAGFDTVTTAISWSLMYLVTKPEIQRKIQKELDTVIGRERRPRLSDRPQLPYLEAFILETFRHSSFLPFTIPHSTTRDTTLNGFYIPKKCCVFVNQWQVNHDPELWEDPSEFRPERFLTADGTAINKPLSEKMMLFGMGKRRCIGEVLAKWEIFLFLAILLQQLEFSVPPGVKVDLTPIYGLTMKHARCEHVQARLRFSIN
Procedure: as §3

recombinant human CYP2C9 = target: T5, recombinant human CYP2C9 (Homo sapiens, UniProt P11712); assay: In vitro cytochrome inhibition; format: in vitro ADME; settings: recombinant human CYP, fluorescent probe; read-out: IC50 inhibition of cytochrome 2C9
T5 construct: purchased Cypex
Procedure: as §3

Pharmacokinetics in dog = format: in vivo, Beagle dogs

T3 sequence (P08684 whole entry): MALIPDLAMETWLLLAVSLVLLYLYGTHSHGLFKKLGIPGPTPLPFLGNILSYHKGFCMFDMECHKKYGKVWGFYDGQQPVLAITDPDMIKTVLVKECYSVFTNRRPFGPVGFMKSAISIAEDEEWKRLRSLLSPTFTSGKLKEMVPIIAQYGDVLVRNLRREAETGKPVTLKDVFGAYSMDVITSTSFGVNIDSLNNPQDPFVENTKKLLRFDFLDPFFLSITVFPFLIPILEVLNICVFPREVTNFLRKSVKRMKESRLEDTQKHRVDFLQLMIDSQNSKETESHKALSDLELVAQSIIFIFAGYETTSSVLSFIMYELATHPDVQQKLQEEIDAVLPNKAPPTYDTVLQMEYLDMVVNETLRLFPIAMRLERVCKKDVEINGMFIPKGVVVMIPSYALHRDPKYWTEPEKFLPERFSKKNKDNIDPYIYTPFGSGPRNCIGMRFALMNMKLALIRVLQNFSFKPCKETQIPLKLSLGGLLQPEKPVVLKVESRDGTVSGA
T5 sequence (P11712 whole entry): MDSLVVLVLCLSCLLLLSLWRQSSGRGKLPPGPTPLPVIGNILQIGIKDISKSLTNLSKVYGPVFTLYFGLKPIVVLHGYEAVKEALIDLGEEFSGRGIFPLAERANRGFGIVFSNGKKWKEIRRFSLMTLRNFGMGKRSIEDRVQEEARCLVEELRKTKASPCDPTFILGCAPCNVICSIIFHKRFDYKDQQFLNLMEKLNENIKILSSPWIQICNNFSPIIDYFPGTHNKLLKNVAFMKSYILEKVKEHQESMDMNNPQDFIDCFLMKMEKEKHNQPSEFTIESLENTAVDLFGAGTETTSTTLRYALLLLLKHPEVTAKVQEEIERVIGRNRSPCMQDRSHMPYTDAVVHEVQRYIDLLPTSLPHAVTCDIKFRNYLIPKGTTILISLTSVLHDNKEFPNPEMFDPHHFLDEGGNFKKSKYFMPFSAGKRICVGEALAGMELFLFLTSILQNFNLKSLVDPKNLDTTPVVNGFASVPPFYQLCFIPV
T2 sequence (P33261 whole entry): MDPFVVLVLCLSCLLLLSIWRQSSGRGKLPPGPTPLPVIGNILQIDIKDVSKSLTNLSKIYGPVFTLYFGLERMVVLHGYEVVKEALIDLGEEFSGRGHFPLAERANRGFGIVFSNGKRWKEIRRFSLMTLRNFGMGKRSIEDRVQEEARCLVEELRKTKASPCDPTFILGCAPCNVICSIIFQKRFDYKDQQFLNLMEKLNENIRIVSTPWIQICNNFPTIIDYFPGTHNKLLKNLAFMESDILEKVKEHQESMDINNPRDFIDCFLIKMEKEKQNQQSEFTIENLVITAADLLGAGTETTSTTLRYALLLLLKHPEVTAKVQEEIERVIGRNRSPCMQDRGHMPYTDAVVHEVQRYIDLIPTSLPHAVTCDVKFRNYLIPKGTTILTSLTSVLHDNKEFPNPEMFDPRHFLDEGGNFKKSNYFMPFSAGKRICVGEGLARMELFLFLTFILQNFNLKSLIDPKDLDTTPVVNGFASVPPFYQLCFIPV
T1 sequence (P10635 whole entry): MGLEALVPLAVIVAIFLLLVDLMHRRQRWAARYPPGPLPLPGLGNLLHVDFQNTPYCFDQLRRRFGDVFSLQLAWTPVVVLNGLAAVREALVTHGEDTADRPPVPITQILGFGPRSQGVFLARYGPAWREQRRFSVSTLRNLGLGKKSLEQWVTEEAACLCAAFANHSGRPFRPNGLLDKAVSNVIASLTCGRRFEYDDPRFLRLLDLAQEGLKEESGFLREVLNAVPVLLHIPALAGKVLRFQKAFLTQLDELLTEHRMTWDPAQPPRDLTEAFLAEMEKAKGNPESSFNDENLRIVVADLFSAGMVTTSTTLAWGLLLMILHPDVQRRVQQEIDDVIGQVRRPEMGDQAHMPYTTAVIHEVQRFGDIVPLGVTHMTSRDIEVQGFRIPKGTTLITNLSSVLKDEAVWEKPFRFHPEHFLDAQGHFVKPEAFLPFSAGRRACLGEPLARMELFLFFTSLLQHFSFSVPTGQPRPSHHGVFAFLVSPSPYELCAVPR

MIC [2] | MIC [3] | MIC [4] | MIC [5] | MIC [6] | MIC [7] | SMILES | Neutrophil accumulation in BALF after cigarette-smoke challenge [1] | also measured
2 µg/mL (≈ 2.67 µM) | 2 µg/mL (≈ 2.67 µM) | 0.5 µg/mL (≈ 0.668 µM) | < 0.125 µg/mL | < 0.125 µg/mL | < 0.125 µg/mL | CC[C@H]1OC(=O)[C@H](C)[C@@H](O[C@H]2C[C@@](C)(OC)[C@@H](O)[C@H](C)O2)[C@H](C)[C@@H](O[C@@H]2O[C@H](C)C[C@H](N(C)C)[C@H]2O)[C@](C)(O)C[C@@H](C)CN(C)[C@H](C)[C@@H](O)[C@]1(C)O [AZM, azithromycin] | dose-dependently inhibited the accumulation of neutrophils | –
> 64 µg/mL | > 64 µg/mL | > 64 µg/mL | 32 µg/mL (≈ 43.7 µM) | 64 µg/mL (≈ 87.3 µM) | 16 µg/mL (≈ 21.8 µM) | CC[C@H]1OC(=O)[C@H](C)[C@@H](O[C@H]2C[C@@](C)(OC)[C@@H](O)[C@H](C)O2)[C@H](C)[C@@H](O[C@H]2C[C@@H](N(C)C)C[C@@H](C)O2)[C@](C)(O)C[C@@H](C)CN(C)[C@H](C)[C@@H](O)[C@]1(C)O [compound 3, 2 ′-dehydroxy azithromycin] | – | –

SMILES | MIC [2] | MIC [3] | MIC [4] | MIC [5] | MIC [6] | MIC [7] | Neutrophil accumulation in BALF after cigarette-smoke challenge [1] | also measured
CC[C@H]1OC(=O)[C@H](C)[C@@H](O[C@H]2C[C@@](C)(OC)[C@@H](O)[C@@H](C)O2)[C@H](C)[C@@H](O[C@H]2C[C@@H](N(C)C)C[C@@H](C)O2)[C@](C)(O)C[C@@H](C)CN(C)[C@H](C)[C@@H](O)[C@]1(C)O [compound 4, 2′-dehydroxy-5″-epi-azithromycin] | > 64 µg/mL | > 64 µg/mL | > 64 µg/mL | > 64 µg/mL | > 64 µg/mL | > 64 µg/mL | dose-dependently inhibited the accumulation of neutrophils | Neutrophil accumulation in BALF after intranasal LPS challenge [8]: inhibited neutrophil accumulation; systemic clearance as % of liver blood flow (Pharmacokinetics in rat): ~17.1 % of liver blood flow; half-life (Pharmacokinetics in rat; Sprague-Dawley, whole blood): ~15 h; Vd (Pharmacokinetics in rat; Sprague-Dawley, whole blood, intravenous, 2 mg/mg, read-out: Vss): 11.7 ± 1.9 L/kg; clearance (Pharmacokinetics in rat; Sprague-Dawley, whole blood, iv, 2 mg/mg, blood): 14.5 ± 8.5 mL/min/kg; systemic clearance as % of liver blood flow [9]: ca. 4.6 % of liver blood flow; Oral F ([9]; 10 mg/kg p.o., 10 mg/kg): 12% and 12.4 ± 4.2%; half-life ([9]; male, Balb/c, whole blood): ~11 h; Vd ([9]; male, Balb/c, whole blood, intravenous, 2 mg/mg, read-out: Vss): 2 ± 0.8 L/kg; clearance ([9]; male, Balb/c, whole blood, iv, 2 mg/mg, blood): 4.1 ± 1.1 mL/min/kg; IC50 (recombinant human CYP2D6): > 33 µM; IC50 [10]: > 33 µM; IC50 (recombinant human CYP3A4): > 33 µM; IC50 (recombinant human CYP1A2): > 33 µM; IC50 (recombinant human CYP2C9): > 33 µM; Oral F (Pharmacokinetics in dog): 62% and 62 ± 10%; systemic clearance as % of liver blood flow (Pharmacokinetics in dog): ~18 % of liver blood flow; half-life (Pharmacokinetics in dog; beagle, in vivo): ~21 h; clearance (Pharmacokinetics in dog; beagle, in vivo, intravenous): 5.5 ± 0.9 mL/min/kg; Vd (Pharmacokinetics in dog; beagle, in vivo, intravenous, read-out: Vss): 6.9 ± 2 L/kg
